# Assay results published in ChEMBL document CHEMBL3988442, “University of Dundee, Small-Polar-MMV Screening Library” (2021).
# System: Schistosoma mansoni
# Assay: High throughput screening of compounds against Schistosoma mansoni motility
# Assay type: functional
# Set-up: dose or concentration left out as unconfirmed
row,SMILES,Percent Effect [%]
1,CCc1cc(=O)[nH]c2nnc(SCC(=O)OC)n12,-72.76
2,Cc1cccc(CNCc2c(C)nn(C)c2N2CCOCC2)n1,-105.3
3,COCCCC1CCCN(C(=O)CCc2cc(O)no2)C1 (centres undefined),4.573
4,CCc1nnc(CN(C)c2nc(C3CCCC3)nc3c2cnn3C)o1,1.111
5,Cc1nc(C)n(CC2CN(CC(=O)Nc3cccnc3)CCO2)n1 (centres undefined),-4.464
6,COc1ccccc1[C@@H]1CN(C(=O)c2csc(C)n2)C[C@H]1C(=O)O,18.41
7,CCN(CC)C(=O)c1ccc(-c2ccsc2)nc1C,-45.64
8,CN(C)C(CNS(=O)(=O)c1ccc(F)cc1F)c1cccn1C (centres undefined),13.79
9,CCS(=O)(=O)N1CCC2(CCCN(Cc3cc(OC)ccc3F)C2)C1 (centres undefined),49.58
10,CSCC[C@H](N)C(=O)NCc1cc2n(n1)CCCN(C1CCCCC1)C2,-26.84
11,c1ccc(C2CCCN2Cc2nnnn2C2CC2)cc1 (centres undefined),-33.61
12,O=C(NCCCn1cccn1)C1(c2ccc(Br)cc2)CC1,14.19
13,Cc1ccc(F)c(OC2(C(=O)O)CCN(C(=O)N3CCCC3)CC2)c1,-4.164
14,CC(C)c1nc(CN(C)C2CCN(Cc3nc(C4CC4)no3)C2)no1 (centres undefined),-10.87
15,Cc1ccc(N2CCN(C(=O)COc3ccccc3)CC2)nn1,-51.88
16,CN(C)C(=O)N1C[C@@H]2CC[C@H](C1)N(Cc1ccc3nsnc3c1)C2,-20.59
17,O=C(Nc1nccs1)N1CCCC(N2CCNC2=O)C1 (centres undefined),-22.52
18,CCc1cnc(CN(C)C2CCN(CCS(C)(=O)=O)C2)o1 (centres undefined),-9.705
19,N#Cc1ccc(CNCC2CCN(CCO)CC2)cc1,-28.87
20,COCc1ccccc1NC(=O)[C@@H]1CCCN1C(=O)c1ccco1,-9.117
21,O=C(CSCC1CC1)N1CCCC(c2nccn2Cc2ccncc2)C1 (centres undefined),9.639
22,Cc1nc(CC(=O)N2CCC[C@H]2c2nc(C(C)C)no2)cs1,11.66
23,CCc1nc2n(n1)CC(Nc1cc(C)nc3ncnn13)CC2 (centres undefined),-43.49
24,CCNS(=O)(=O)c1ccc(C)c(C(=O)N(C)Cc2ccco2)c1,-32.86
25,NC(=O)COc1cccc(C(=O)Nc2cnc3n2CCCC3)c1,-21.49
26,CC(Cn1cccn1)NC(=O)Nc1ccc(F)cc1 (centres undefined),-15.2
27,COCc1ccccc1C(=O)NCCCN1CCCC1C(=O)N(C)C (centres undefined),-41.89

row,SMILES,Percent Effect [%]
1,O=C(NCC1CC1)C1CSCN1S(=O)(=O)c1cccc(F)c1 (centres undefined),-77.75
2,CC1CCCN(CCNC(=O)c2cncnc2C(C)C)C1 (centres undefined),-12.57
3,Cc1cnccc1N1CCCN(C(=O)CCCc2cn[nH]c2)CC1,-14.12
4,CCCS(=O)(=O)c1ncc(CN2CCC(CO)CC2)n1CC1CCCO1 (centres undefined),-65.7
5,CCN(c1ccc(C(=O)N2CCCC(C)C2)cc1)S(=O)(=O)CC (centres undefined),-11.81
6,OCCC1CN(C2CCC2)CCN1C1CCCC1 (centres undefined),-52.06
7,CCc1ncc2c(n1)CN(Cc1nnc(C)o1)CC2,-12.75
8,CCC(=O)N1CCC2(CC1)c1nc[nH]c1CCN2S(C)(=O)=O,-32.51
9,CC(C)S(=O)(=O)NCC1CCCN(C(=O)c2ccc3c(c2)OCCO3)C1 (centres undefined),-47.11
10,CC(=O)c1cc(CN2C[C@H]3CC[C@@H]2CN(S(=O)(=O)N(C)C)C3)cs1,-16.28
11,CN(C)S(=O)(=O)N1C[C@@H]2CC[C@H](C1)N(Cc1ccc3nsnc3c1)C2,-23.4
12,COc1ccccc1NC(=O)NCC(O)(c1ccccc1)C1CC1 (centres undefined),57.61
13,CCCNC(=O)C(C)NC(=O)CCc1ccccc1Br (centres undefined),31.68
14,Cn1cnc(S(=O)(=O)N2CCN(Cc3ccco3)CC2)c1Cl,-70.1
15,CCc1ccccc1C(=O)N1CCN(S(C)(=O)=O)[C@@H](C)C1,-27.03
16,COc1ccc(OC)c(-c2nc(CN(C)Cc3nncn3C)c(C)o2)c1,-42.05
17,O=S(=O)(c1cccnc1)N1CCN(CCn2ccnc2)CC1,-24.98
18,Cc1noc(C)c1CCC(=O)N1CCN(CCn2cccn2)CC1,-23.72
19,CCCN1CCC(NC(=O)c2ccc(F)cc2I)CC1,16.82
20,COc1ccccc1[C@@H]1CN(Cc2cc(C(C)(C)C)[nH]n2)C[C@H]1C(=O)O,42.17
21,Cl.Cl.OC(CN1CCN(Cc2ccc(F)c(F)c2)CC1)C1CC1 (centres undefined),-57.04
22,Cc1cccc(CNCc2c(C(C)C)nn(C)c2N2CCOCC2)n1,-46
23,CC(C)S(=O)(=O)NCC1CCCN(C(=O)c2cccnc2)C1 (centres undefined),-61.29
24,CC(C#N)CSc1ccccc1NCC(=O)Nc1ccc(F)cc1 (centres undefined),55.09
25,O=C(CCc1ccc(=O)[nH]n1)N1CCCC(COc2ccc(F)cc2)C1 (centres undefined),4.924
26,O=C(c1cccnc1)N1C[C@@H]2CC[C@H](C1)N(Cc1ncc[nH]1)C2,-27.62
27,COCCNS(=O)(=O)c1cccc2c1CN(C(=O)c1ccccc1)CC2,10.23

row,SMILES,Percent Effect [%]
1,Cc1nccn1-c1cc(CNC(=O)c2ccccn2)ccn1,-81.26
2,Cc1cc(C(=O)N2CCC(c3nccn3CCCN(C)C)CC2)no1,-19.46
3,O=C(CSc1ccc2c(c1)OCCO2)NS(=O)(=O)C1CCCCC1,7.796
4,Cc1cc(NC(=O)CCc2ccsc2)n(C)n1,18.83
5,CN(C)C(=O)c1ccc2c(c1)N(C)C(CC(=O)NCc1ccno1)CO2 (centres undefined),0.8383
6,Cc1noc(C)c1CCC(=O)N1CCN(CCn2cncn2)CC1,-8.408
7,O=C(CN(Cc1cccnc1)CC1CCCO1)Nc1ccc(F)cc1 (centres undefined),-30.42
8,O=C(CN1CCCC1Cn1cncn1)NC(C1CC1)C1CC1 (centres undefined),-24.22
9,CN(C)C(=O)N1CCN(C(=O)C(c2ccccc2F)N(C)C)CC1 (centres undefined),-1.181
10,Cc1nccc(N2CCC(=O)N(Cc3ccc(F)cc3)C(C(C)C)C2)n1 (centres undefined),-22.84
11,CCN1CCCC1CN(CCN(C)C)S(=O)(=O)c1ccc(C#N)cc1 (centres undefined),8.845
12,O=C(c1cnc(COc2ccccc2)nc1O)N1CCOCC1,1.503
13,O=C(CCc1cscn1)NS(=O)(=O)c1ccc2c(c1)CCC2,28.79
14,Cc1nc(CN2CCCC(N(C)CCc3cccs3)C2)no1 (centres undefined),-59.95
15,CCc1ncc2c(n1)CN(Cc1nc(C)c(C)o1)CC2,-33.77
16,CC(Cn1cncn1)NCc1nncn1C1CCCCC1 (centres undefined),4.936
17,NC(=O)CN1CCC(NC(=O)c2ccn(-c3cccc(F)c3)n2)CC1,5.204
18,O=C(NCCCn1cccn1)C1(c2ccc(F)cc2)CC1,23.22
19,CC1CCN(CCNC(=O)C2CCN(S(N)(=O)=O)CC2)CC1,6.276
20,Cc1ccc(S(=O)(=O)NC2CC2)cc1C,-24.32
21,CC(C)(C)NC(=O)C1CSCN1S(=O)(=O)c1cccc(F)c1 (centres undefined),-27.85
22,Cc1n[nH]c(C)c1C1CCCN1C(=O)NCCSC(C)(C)C (centres undefined),-28.72
23,CCN(CCn1cccn1)Cc1nc(-c2ccccc2F)oc1C,-13.18
24,COC(=O)c1cc(OCC2CCC2)cc(C(=O)N[C@@H]2CNCC[C@H]2O)c1,-27.72
25,CNc1nc(C(=O)N2CCCC(c3nccn3CC3CCC3)C2)cs1 (centres undefined),-15.23
